Test [1] deals with T1, Corticotropin-releasing factor receptor 2/Corticotropin-releasing factor-binding protein (Homo sapiens, UniProt P24387+Q13324).
T1 sequence (Q13324 whole entry): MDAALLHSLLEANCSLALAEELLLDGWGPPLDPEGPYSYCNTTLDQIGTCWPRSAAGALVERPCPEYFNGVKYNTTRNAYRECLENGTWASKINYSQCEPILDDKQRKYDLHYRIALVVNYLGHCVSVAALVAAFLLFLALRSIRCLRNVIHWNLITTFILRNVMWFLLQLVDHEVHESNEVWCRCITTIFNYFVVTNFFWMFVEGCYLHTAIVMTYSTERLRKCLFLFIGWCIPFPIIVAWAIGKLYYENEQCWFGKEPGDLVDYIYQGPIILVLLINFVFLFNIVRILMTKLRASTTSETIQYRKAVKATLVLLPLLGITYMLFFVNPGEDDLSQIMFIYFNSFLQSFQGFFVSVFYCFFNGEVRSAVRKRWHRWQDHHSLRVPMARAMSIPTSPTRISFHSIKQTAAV
T1 sequence (P24387 whole entry): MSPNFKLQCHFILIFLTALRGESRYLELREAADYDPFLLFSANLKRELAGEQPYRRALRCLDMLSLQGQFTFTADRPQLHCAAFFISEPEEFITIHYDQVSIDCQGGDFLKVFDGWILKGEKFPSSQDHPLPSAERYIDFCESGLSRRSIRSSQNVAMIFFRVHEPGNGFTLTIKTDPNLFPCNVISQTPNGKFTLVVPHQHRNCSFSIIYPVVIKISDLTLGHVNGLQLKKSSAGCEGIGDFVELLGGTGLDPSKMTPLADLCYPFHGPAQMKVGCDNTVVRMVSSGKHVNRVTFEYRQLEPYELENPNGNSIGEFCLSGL
As to the kind of experiment: activators of CRF receptor 2 with binding protein – uHTS hits, confirmation (AID 602473). As to conditions: read-out: EC50_Mean. It is filed as functional.

The target in test [2] is Lysine-specific demethylase 4C (Homo sapiens, UniProt Q9H3R0). Kind of test: inhibition of JMJD2C H3K9me3 demethylation – biochemical, DELFIA europium, cherry-picked samples, dose response (AID 488835). The test is classed as functional.
Test [3] concerns the target NAD-dependent protein deacylase sirtuin-5, mitochondrial (Homo sapiens, UniProt Q9NXA8). Kind of test: sirtuin-5 deacylation blockers, concentration series – biochemical, fluorescence imaging, cherry-pick, set 5, dose response (AID 720591).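 Note: desuccinylation of succinyl peptide AMC substrate read as fluorescence after trypsin release; potency of inhibitors that lower fluorescence and may act on trypsin instead.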
The subject of test [4] is Vero. Kind of test: viability of Vero cells under compound – cytotoxicity control for flavivirus capping enzyme inhibitors (AID 588742). The test is classed as functional. As to conditions: Chlorocebus sabaeus.
A further test has as its target Genome polyprotein (dengue virus type 2, UniProt P29990). As to the kind of experiment: flavivirus cap methylation enzyme inhibition – biochemical, confirmation dose response, primary screen (AID 588689). The test is classed as functional.
Test [5] addresses Lysine-specific demethylase 4A (Homo sapiens, UniProt O75164). Kind of test: inhibition of JMJD2A H3K9me3 demethylation – biochemical, DELFIA europium, cherry-picked samples, selectivity assay for GASC-1 inhibitor project, dose response (AID 488840).
The target in test [6] is T1, Corticotropin-releasing factor receptor 2/Corticotropin-releasing factor-binding protein. Kind of test: Dose Response confirmation of uHTS hits for small molecule antagonists of the CRF-binding protein and CRF-R2 receptor complex. The test is classed as functional. As to conditions: read-out: IC50_Mean.
The nature of test [7]: DRD fibroblast viability loss – cell-based, non-viral oncogenic, luminescence, dose response (AID 1934). It is filed as functional. As to conditions: Homo sapiens.
Test [8] has as its system BJ. As to the kind of experiment: BJ-TERT-LT-ST fibroblast viability loss – cell-based, RAS-independent, luminescence, dose response (AID 1935).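 Note: BJ fibroblasts immortalized with TERT plus LT and ST oncogenes.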 It is filed as functional. As to conditions: Homo sapiens.
The target of test [9] is 5-hydroxytryptamine receptor 5A (Homo sapiens, UniProt P47898). Kind of test: Counterscreen for agonists of OPRM1-OPRD1 heterodimerization: luminescence-based cell-based high throughput dose response assay to identify agonists of 5-hydroxytryptamine (serotonin) 5A receptor (HTR5A). [Related pubchem assays (depositor defined):AID504326, AID504355, AID504692, AID504904, AID504905]. The test is classed as functional. On the technique in general: The purpose of a counterscreen is to sort out artefacts and off-target activity.

Test [10] relates to BJ. As to the kind of experiment: BJ-TERT fibroblast viability loss – cell-based, RAS-independent, luminescence, dose response (AID 1933). It is filed as functional. As to conditions: Homo sapiens.
Test [11] has as its target Luciferin 4-monooxygenase (Photinus pyralis, UniProt P08659). Kind of test: inhibition of purified Photinus pyralis luciferase – biochemical, luminescence, dose response (AID 1891).
For test [12], the system named is BJ. As to the kind of experiment: cells. It is filed as functional, cell-based. As to conditions: Homo sapiens.
Test [13] relates to BJ. Kind of test: growth inhibition of engineered Ras-driven BJ cells – cell-based, alamar blue fluorescence, cherrypicked samples, dose response (AID 2631).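 Note: confirmatory dose-response assay in RAS-dependent BJ fibroblasts engineered with TERT, LT and ST, with cytotoxicity read by fluorescence.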 The test is classed as functional. As to conditions: Homo sapiens. (Resazurin is reduced to fluorescent resorufin, in cell work by metabolically active cells.)
Test [14] is described as follows: Luminescence Cell-Based Dose Confirmation HTS to Identify Inhibitors of Platelet Dense Granule Release. [Related pubchem assays: 1663 (Primary HTS), 1678 (Summary of Project)]. It is filed as functional.
The target in test [15] is Delta-type opioid receptor (Homo sapiens, UniProt P41143). Kind of test: Counterscreen for agonists of heterodimerization of the mu 1 (OPRM1) and delta 1 (OPRD1) opioid receptors: Luminescence-based cell-based high throughput dose response assay to identify agonists of OPRD1 homodimerization. [Related pubchem assays (depositor defined):AID504326, AID504355, AID504692, AID504904, AID504905]. It is filed as functional.

The next test concerns the target Mu-type opioid receptor (Homo sapiens, UniProt P35372). Kind of test: Counterscreen for agonists of heterodimerization of the mu 1 (OPRM1) and delta 1 (OPRD1) opioid receptors: Luminescence-based cell-based high throughput dose response assay to identify agonists of OPRM1 homodimerization. The test is classed as functional.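 Note: U2OS cells expressing OPRM1 and beta-arrestin as split beta-galactosidase partners.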
A short description of test [16]: viability of uninfected HEp-2 cells – cell-based, HTS, cytotoxicity control for RSV inhibitor project, dose response (AID 2410). The test is classed as functional. As to conditions: human respiratory syncytial virus.
For test [17], the system named is Vero. As to the kind of experiment: cells. The test is classed as functional, cell-based. As to conditions: Chlorocebus sabaeus.
The target of test [18] is Dual specificity protein phosphatase 3 (Homo sapiens, UniProt P51452). Kind of test: SAR VHR1 Fluorescent Assay for In Vitro dose response studies Set 3. [Related pubchem assays (depositor defined):AID1654, AID1661, AID1878]. It is filed as functional.
Test [19] can be described thus: T. cruzi infection blockers in NIH3T3 cells – beta-gal luminescence, NIH3T3 host cells, confirmation (AID 2630). It is filed as functional, cell-based. As to conditions: Mus musculus.
The subject of test [20] is A-375. As to the kind of experiment: MITF: Counter assay: A375 proliferation Measured in Cell-Based System Using Plate Reader - 2084-03_Inhibitor_Dose_DryPowder_Activity. [Related pubchem assays (depositor defined):AID488944]. The test is classed as functional. As to conditions: Homo sapiens.
For test [21], the system named is A-375. Kind of test: proliferation inhibition in MITF-low A375 cells – cell-based, cherry-pick samples, set 2, counter-screen for MITF modulator project, dose response (AID 540335). It is filed as functional. As to conditions: Homo sapiens.

Molecules are shown by their SMILES. Active and inactive are the calls of the source.

Chain of Lysine-specific demethylase 4C (Q9H3R0 whole entry): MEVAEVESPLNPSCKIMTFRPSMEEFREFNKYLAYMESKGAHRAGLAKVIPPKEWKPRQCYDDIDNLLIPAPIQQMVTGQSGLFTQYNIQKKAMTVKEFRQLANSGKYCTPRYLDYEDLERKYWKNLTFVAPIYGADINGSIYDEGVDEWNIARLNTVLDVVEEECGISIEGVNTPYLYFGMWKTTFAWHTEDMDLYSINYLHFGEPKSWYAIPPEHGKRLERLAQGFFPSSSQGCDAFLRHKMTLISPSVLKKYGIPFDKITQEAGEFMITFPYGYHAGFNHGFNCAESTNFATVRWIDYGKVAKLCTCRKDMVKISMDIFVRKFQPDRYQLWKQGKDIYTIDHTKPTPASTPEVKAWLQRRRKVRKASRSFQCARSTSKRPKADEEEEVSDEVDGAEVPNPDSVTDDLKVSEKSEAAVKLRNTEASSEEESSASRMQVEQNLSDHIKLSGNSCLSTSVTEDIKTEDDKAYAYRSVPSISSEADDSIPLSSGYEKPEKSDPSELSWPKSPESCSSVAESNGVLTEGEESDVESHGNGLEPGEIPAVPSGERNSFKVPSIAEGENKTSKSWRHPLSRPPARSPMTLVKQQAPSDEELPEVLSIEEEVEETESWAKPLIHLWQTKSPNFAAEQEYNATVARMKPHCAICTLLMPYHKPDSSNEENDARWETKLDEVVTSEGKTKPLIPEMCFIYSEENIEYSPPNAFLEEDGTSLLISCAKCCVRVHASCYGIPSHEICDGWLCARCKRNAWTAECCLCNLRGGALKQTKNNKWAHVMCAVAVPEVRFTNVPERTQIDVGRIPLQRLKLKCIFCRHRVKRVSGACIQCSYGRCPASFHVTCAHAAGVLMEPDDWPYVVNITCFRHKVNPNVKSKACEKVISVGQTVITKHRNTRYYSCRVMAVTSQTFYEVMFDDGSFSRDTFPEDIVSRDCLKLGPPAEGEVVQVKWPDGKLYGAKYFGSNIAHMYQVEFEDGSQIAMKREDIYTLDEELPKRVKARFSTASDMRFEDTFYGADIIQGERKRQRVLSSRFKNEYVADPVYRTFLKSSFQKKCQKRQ
Chain of Luciferin 4-monooxygenase (P08659 whole entry): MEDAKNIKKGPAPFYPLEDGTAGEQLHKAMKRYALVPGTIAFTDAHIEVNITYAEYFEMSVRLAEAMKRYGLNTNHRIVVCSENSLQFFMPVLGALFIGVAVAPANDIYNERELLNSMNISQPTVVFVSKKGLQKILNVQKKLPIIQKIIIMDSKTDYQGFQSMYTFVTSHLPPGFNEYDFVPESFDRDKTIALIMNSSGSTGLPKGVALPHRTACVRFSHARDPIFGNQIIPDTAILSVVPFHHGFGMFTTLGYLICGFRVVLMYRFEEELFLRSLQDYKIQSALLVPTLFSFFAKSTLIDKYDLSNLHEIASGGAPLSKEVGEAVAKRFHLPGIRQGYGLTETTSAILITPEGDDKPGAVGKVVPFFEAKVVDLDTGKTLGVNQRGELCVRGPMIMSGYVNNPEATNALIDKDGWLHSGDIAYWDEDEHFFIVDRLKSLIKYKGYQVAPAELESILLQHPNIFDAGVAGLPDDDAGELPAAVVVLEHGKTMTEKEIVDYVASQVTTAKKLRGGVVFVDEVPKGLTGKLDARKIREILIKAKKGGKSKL
Chain of Genome polyprotein (P29990 2492-3391 limits assumed): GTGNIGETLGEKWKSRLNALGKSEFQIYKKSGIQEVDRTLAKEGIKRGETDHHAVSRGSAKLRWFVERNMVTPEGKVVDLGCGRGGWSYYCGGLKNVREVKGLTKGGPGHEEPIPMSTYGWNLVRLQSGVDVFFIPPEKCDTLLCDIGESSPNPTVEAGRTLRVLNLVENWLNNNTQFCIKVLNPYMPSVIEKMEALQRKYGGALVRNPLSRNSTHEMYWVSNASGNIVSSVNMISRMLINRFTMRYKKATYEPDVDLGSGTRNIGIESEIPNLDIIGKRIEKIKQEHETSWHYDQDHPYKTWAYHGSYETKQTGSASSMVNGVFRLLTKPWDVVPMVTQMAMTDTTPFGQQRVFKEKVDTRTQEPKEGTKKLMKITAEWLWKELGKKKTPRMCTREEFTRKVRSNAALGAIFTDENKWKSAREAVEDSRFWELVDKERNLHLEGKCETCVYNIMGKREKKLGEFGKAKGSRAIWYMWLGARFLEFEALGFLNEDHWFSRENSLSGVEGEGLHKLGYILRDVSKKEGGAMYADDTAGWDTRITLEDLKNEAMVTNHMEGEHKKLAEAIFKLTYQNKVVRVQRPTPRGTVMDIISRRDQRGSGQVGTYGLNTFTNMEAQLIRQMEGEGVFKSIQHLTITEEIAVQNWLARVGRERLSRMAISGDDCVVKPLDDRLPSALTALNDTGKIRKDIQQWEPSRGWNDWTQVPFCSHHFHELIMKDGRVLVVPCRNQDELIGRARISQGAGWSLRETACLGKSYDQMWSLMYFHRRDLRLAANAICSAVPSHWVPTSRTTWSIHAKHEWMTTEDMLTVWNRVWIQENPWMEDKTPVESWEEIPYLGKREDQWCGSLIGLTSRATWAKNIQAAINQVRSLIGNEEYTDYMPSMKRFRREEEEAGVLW
Chain of Delta-type opioid receptor (P41143 whole entry): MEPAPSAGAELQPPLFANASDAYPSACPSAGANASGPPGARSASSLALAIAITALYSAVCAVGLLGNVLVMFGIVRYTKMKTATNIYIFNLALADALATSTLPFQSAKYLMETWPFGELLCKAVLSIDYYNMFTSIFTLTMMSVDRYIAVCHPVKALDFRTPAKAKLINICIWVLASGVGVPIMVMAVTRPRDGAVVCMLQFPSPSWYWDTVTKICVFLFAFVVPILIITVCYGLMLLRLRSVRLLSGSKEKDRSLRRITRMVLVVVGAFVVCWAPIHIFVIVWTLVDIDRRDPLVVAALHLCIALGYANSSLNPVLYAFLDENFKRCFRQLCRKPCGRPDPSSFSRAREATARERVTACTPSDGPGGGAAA
Chain of 5-hydroxytryptamine receptor 5A (P47898 whole entry): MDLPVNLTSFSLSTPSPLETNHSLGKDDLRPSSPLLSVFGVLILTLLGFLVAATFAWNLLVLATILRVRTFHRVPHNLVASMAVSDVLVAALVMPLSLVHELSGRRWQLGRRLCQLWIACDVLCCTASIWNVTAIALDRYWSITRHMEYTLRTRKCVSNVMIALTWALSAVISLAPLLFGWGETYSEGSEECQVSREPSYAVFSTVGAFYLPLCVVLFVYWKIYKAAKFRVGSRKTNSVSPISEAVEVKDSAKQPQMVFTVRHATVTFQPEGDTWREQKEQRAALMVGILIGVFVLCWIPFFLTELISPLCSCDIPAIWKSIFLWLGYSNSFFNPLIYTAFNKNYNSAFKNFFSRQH
Chain of NAD-dependent protein deacylase sirtuin-5, mitochondrial (Q9NXA8 whole entry): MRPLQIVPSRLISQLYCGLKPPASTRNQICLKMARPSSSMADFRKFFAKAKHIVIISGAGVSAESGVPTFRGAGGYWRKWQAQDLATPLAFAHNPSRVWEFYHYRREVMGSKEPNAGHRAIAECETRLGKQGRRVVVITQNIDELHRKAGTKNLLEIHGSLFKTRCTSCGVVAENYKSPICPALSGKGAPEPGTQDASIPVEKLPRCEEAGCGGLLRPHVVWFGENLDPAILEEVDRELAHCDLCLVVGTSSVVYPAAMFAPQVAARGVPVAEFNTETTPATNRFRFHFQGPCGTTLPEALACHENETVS
Chain of Mu-type opioid receptor (P35372 whole entry): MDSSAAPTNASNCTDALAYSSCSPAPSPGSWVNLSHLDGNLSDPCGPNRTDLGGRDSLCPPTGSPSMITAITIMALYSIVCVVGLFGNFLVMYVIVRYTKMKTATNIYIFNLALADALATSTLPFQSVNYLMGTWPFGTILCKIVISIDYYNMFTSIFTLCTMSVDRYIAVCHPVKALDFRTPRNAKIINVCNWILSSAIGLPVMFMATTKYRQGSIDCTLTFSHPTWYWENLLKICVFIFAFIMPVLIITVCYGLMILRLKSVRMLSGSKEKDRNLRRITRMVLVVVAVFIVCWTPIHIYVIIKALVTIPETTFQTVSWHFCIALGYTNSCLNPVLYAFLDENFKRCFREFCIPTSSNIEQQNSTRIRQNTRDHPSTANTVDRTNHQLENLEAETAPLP
Chain of Dual specificity protein phosphatase 3 (P51452 whole entry): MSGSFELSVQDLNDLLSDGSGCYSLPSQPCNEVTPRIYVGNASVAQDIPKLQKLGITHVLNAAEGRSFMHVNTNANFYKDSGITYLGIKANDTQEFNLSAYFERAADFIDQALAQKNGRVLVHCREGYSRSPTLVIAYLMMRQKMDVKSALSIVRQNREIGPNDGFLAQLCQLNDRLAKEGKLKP

As to `CCc1ccc([C@@H]2CC=C(C(=O)O)[C@H](c3ccc(C(C)(C)C)cc3)N2S(=O)(=O)c2ccc(C)cc2)cc1`, the EC50 in test [1] is 27.8 µM (active). The AC50 was 14.8 µM (active) in [2], 13.5 µM (active) in test [3] and 9.31 µM (active) in test [5]. Moreover, the CC50 in the test on Vero [4] is > 40 µM (active). The IC50 at Genome polyprotein was 37 µM (active); in test [6], < 368 nM (active).

In the case of `Cc1occc1C(=O)N/N=C/c1ccc(-c2ccccc2)cc1`, the EC50 was 3.41 µM (active) in [7]; 10.3 µM (active) with BJ [8]; > 92.4 µM (inactive) in test [9]; 4.43 µM (active) with BJ [10]; 151 nM (active) in test [11]; 3.14 µM (active) in the test on BJ [12]. Further, the EC50 in the test with BJ [13] was > 133 µM (inactive); in [14] it was 897 nM (active); in test [15] it was > 92.4 µM (inactive); on Mu-type opioid receptor, > 92.4 µM (inactive).

In the case of `CC(Sc1nnc(Nc2ccccc2)s1)C(=O)Nc1nc(-c2ccccc2)cs1` (stereo not drawn), the half-maximal cytotoxic concentration (CC50) in test [16] is > 50 µM (active). Further, in the test on Vero [17], the IC50 is > 25 µM (active).

On to `COc1cccc2sc(NC(=O)c3ccccc3)nc12`, for which, in test [18], the IC50 was > 66 µM (inactive).

For the molecule `COc1ccc(C(=O)C2CCCN(CC3CCCCC3)C2)cc1OC` (stereo not drawn), the EC50 in test [19] is 452 nM (active).

Take `O=C(NCCNc1ccccc1[N+](=O)[O-])c1cc(F)c(F)cc1Cl`: the AC50 in the test with A-375 [20] and with A-375 [21] was > 11 µM (active) each time.

Broadly, the AC50 is the concentration giving half of the maximal activity seen. As a reminder, the CC50 is the concentration that lowers cell viability or growth by half.

The values are drawn from ChEMBL document CHEMBL1201862, “PubChem BioAssay data set” (2004).
